Results as given in ChEMBL document CHEMBL1130648, “The synthesis of a new type of anthracene DNA intercalator” (Bioorg Med Chem Lett, 1998).

Test system: Nucleic Acid
Test: Compound was tested for binding affinity against CT DNA.
Type: nucleic-acid assay
Conditions: Bos taurus

Binding affinity	Compound
10000 M⁻¹	NCc1c2ccccc2cc2ccccc12
40000 M⁻¹	COc1cc2c(CCCN)c3cc(OC)c(OC)cc3c(CCCN)c2cc1OC
